Assays:
[1] = system: AKT protein phosphorylated on serine 473 in PC3 human prostate carcinoma cells; experiment: pAKT expression in PC3 cells measured by western blotting (test A); type: cell-based; details: PC-3, inhibition of AKT Ser473 phosphorylation, 1 to 2 hours incubation, absolute IC50, mean of two experiments
Protocol: (§1) The inhibitory activity of the molecules on AKT phosphorylation is measured either by western blotting using the technique described below, or by the MSD Multi-spot Biomarker detection technique from Meso Scale Discovery also described below.
Study of pAKT expression in PC3 human prostate carcinoma cells measured by western blotting (test A):
This test is based on measuring the expression of the AKT protein phosphorylated on serine 473. The phosphorylation of AKT (pAKT) is measured by western blotting in the PC3 human prostate carcinoma line (ATCC CRL-1435), using an antibody that specifically recognises pAKT-5473.
(§2) On day 1, the PC3 cells are seeded into 6-well plates (TPP, #92006) at the concentration of 0.8×10^6 cells/well in 1800 μl of DMEM medium (DMEM Gibco #11960-044) containing 10% of foetal calf serum (SVF Gibco, #10500-056) and 1% glutamine (L-Glu Gibco #25030-024), and incubated at 37° C., 5% CO2, overnight.
(§3) On day 2, the cells are incubated in the presence or absence of the test products for 1 to 2 hours at 37° C. in the presence of 5% CO2. The molecules, diluted in dimethyl sulphoxide (DMSO Sigma #D2650), are added from a 10-times concentrated stock solution, the final percentage of DMSO being 0.1%. The molecules are tested either at a single concentration of less than or equal to 10 μM, or at increasing concentrations in a range that can extend from less than 1 nM to 10 μM.
After this incubation, the cells are lysed for the preparation of the proteins. After the culture medium has been drawn off, the cells are rinsed with 1 ml of PBS (DPBS Gibco, #14190-094), recovered by scraping in 200 μl of complete HNTG buffer and transferred into a 96-well plate (Greiner #651201), and lysed for 1 h on ice. The HNTG buffer is composed of the following mixture: 50 mM hepes, 150 mM NaCl, 1% triton, 10% glycerol, with extemporaneous addition of one Mini Protease Inhibitor Cocktail tablet (Roche 1836153) and of one Phosphatase Inhibitor Cocktail tablet (Roche 104906837001) per 10 ml of buffer.
The lysate is centrifuged for 10 min at 6000 rpm. 155 μl of supernatant are recovered. 150 μl are incubated for denaturation for 5 min at 95° C. in the presence of 4× NuPAGE LDS Sample Buffer diluted 4-fold (InVitrogen ref NP0007) and of 10× NuPAGE Sample Reducing Agent diluted 10-fold (InVitrogen ref NP0009). These samples are then frozen at −20° C. 5 μl are assayed by the microBCA technique according to the technical bulletin of the MicroBCA Protein Assay Kit (Pierce #23235).
For protein separation, 20 μg of proteins are loaded on to a NU-PAGE 4-12% Bis Tris Gel 12 well (InVitrogen ref NP0322BOX) and the migration is carried out for 1 h 30 in 20×NU-PAGE MOPS SDS Running Buffer diluted 20-fold (InVitrogen ref NP0001), at 150 volts.
The gel is then transferred onto an Invitrolon PVDF membrane (Invitrogen #LC2007) permeabilised beforehand for a few seconds in ethanol (Ethanol Fischer Scientific #E/0600DF/15).
The transfer is carried out in a Biorad tank at 30 volts overnight or at 60 volts for 3 hours, in the presence of 20× NUPAGE Transfer Buffer diluted 20-fold (InVitrogen ref NP0006).
The membrane is then saturated in saturating solution composed of TBS (10× Tris Buffered Saline, Sigma #T5912, diluted 10-fold), 0.1% Tween 20 (Sigma #P5927) and 3% BSA (Bovine Serum Albumin Fraction V, Sigma #A4503) for 6 h after overnight transfer or else for 1 h after transfer for a period of 3 h.
The primary antibodies are diluted to 1/1000th for the anti-phospho AKT-Ser473 antibody (193H2, rabbit monoclonal, cat#4058 from Cell Signaling Technology) Abcam), in saturating solution composed of […], 0.1% Tween 20 and 3% BSA, and then shaken overnight at 4° C.
Two rinses for 5 min in washing solution composed of TBS and 0.1% Tween 20 are carried out before hybridisation of the secondary antibodies. […]

[2] = system: AKT protein phosphorylated on serine 473 (P-AKT-S473) in PC3 human prostate carcinoma cells; experiment: pAKT expression in PC3 cells measured by MSD Multi-spot Biomarker Detection (Test B); type: cell-based; details: PC-3, inhibition of AKT Ser473 phosphorylation, 1 to 2 h incubation, MSD sandwich immunoassay, absolute IC50, mean of two experiments
Protocol: as §1
Where appropriate, the activity of the products is translated into approximately IC50, obtained from a dose-response curve of various concentrations tested and representing the dose giving 50% of specific inhibition (absolute IC50). Two independent experiments make it possible to calculate the mean of the IC50s. Study of pAKT expression in PC3 human prostate carcinoma cells measured by the MSD Multi-spot Biomarker Detection technique from Meso Scale Discovery (Test B): This test is based on measuring the expression of the AKT protein phosphorylated on serine 473 (P-AKT-S473), in the PC3 human prostate carcinoma line, by means of the technique based on a sandwich immunoassay using the MSD Multi-spot Biomarker Detection kit from Meso Scale Discovery: phospho-Akt (Ser473) whole cell lysate kit (#K151 CAD) or phospho-Akt (Ser473)/Total Akt whole cell lysate kit (#K151OOD).
The primary antibody specific for P-AKT-5473 (Kit #K151 CAD) is coated onto an electrode in each well of the 96-well plates of the MSD kit: after the addition of a protein lysate to each well, the signal is visualised by adding a secondary detection antibody labelled with an electrochemoluminescent compound. The procedure followed is that described in the kit.
as §2, with “96-well” for “6-well”, “#92096)” for “#92006)”, “35 000” for “0.8×10^6”, “200” for “1800”, “(FCS” for “(SVF”
as §3, with “h” for “hours”, “5% of” for “5%”, “20-times” for “10-times”
After this incubation, the cells are lysed for the preparation of the proteins. For this, after the culture medium has been drawn off, […] of complete Tris Lysis Buffer of the MSD kit containing the protease and phosphatase inhibitor solutions are added to the wells and the cells are lysed for 1 h at 4° C. with shaking At this stage, the plates containing the lysates can be frozen at −20° C. or at −80° C.
The wells of the 96-well plates of the MSD kit are saturated for 1 h at ambient temperature with the blocking solution of the MSD kit. Four washes are carried out with 150 μl of Tris Wash Buffer of the MSD kit. The lysates previously prepared are transferred into the 96-well multi-spot plates of the MSD kit and incubated for 1 h at ambient temperature, with shaking Four washes are carried out with 150 μl of Tris Wash Buffer of the MSD kit. 25 μl of the MSD sulpho-tag detection antibody solution are added to the wells and incubated for 1 h at ambient temperature, with shaking Four washes are carried out with 150 μl of Tris Wash Buffer of the MSD kit. 150 μl of Read Buffer of the MSD kit are added to the wells and the plates are read immediately on the 512400 instrument from Meso Scale Discovery.
The instrument measures a signal for each well. Wells without cells and containing the lysis buffer serve to determine the background noise that will be subtracted from all the measurements (min). The wells containing cells in the absence of product and in the presence of 0.1% DMSO are considered to be the 100% signal (max). The percentage inhibition is calculated for each concentration of test product according to the following formula: (1−((test−min)/(max−min)))×100. […]

O=c1cc(N2CCOCC2)nc(Cc2nc3cc(F)ccc3o2)[nH]1 [Example 7, 2-[(5-fluoro-1,3-benzoxazol-2-yl)methyl]-6-(morpholin-4-yl)pyrimidin-4(3H)-one]
IC50 [1]: 903 nM
IC50 [2]: 26 nM

O=c1cc(N2CCOCC2)nc(Cc2nc3ccc(Br)cc3[nH]2)[nH]1 [Example 3, 2-[(5-bromo-1H-benzimidazol-2-yl)methyl]-6-(morpholin-4-yl)pyrimidin-4(3H)-one]
IC50 [1]: 1340 nM
IC50 [2]: 85 nM

O=c1cc(N2CCOCC2)nc(Cc2nc3ccc(F)cc3o2)[nH]1 [Example 6, 2-[(6-fluoro-1,3-benzoxazol-2-yl)methyl]-6-(morpholin-4-yl)pyrimidin-4(3H)-one]
IC50 [1]: 380 nM
IC50 [2]: 49 nM

O=c1cc(N2CCOCC2)nc(Cc2nc3ccc(F)cc3[nH]2)[nH]1 [Example 1, 2-[(5-fluoro-1H-benzimidazol-2-yl)methyl]-6-(morpholin-4-yl)pyrimidin-4(3H)-one]
IC50 [1]: 298 nM
IC50 [2]: 41 nM

Cn1c(Cc2nc(N3CCOCC3)cc(=O)[nH]2)nc2ccccc21 [Example 10, 2-[(1-methyl-1H-benzimidazol-2-yl)methyl]-6-(morpholin-4-yl)pyrimidin-4(3H)-one]
IC50 [1]: 713 nM
IC50 [2]: 27 nM

From patent publication US8507483B2, “1H-pyrimidin-2-one derivatives, preparation thereof and pharmaceutical use thereof as inhibitors of AKT (PKB) phosphorylation” (Sanofi, priority 2009, dated 2013)
